Consider seven molecules from PMC5957530 (FEBS letters, 2017).

First the molecules themselves.
T1: cysteine synthase complex (CSC; E. coli CysE in complex with E. coli CysK) (Escherichia coli, UniProt P0A9D4)
T1 sequence (P0A9D4 1-273): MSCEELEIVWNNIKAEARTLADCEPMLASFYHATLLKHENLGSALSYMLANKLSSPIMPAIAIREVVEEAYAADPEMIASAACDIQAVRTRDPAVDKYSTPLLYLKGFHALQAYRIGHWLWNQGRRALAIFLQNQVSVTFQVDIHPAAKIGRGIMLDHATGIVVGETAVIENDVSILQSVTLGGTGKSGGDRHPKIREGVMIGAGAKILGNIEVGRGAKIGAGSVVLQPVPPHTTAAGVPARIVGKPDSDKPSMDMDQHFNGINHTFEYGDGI
T1 sequence (P0ABK5 1-323 partner): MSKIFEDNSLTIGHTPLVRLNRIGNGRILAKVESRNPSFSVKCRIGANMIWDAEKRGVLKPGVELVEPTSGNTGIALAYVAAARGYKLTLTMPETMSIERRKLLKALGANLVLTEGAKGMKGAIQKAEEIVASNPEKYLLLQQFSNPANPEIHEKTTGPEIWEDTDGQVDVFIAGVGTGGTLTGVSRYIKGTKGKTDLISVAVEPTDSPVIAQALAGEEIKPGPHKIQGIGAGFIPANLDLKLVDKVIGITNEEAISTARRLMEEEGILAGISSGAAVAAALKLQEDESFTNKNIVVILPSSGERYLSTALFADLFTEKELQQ

T2: Escherichia coli CysE (Escherichia coli, UniProt P0A9D4)
T2 sequence (P0A9D4 1-273): T1 sequence (P0A9D4 1-273)

B1: O-acetylserine sulfhydrylase-A (CysK) from E. coli (enzyme, UniProt P0ABK5 1-323, looked up)
chain: T1 sequence (P0ABK5 1-323 partner)
modifications: bound pyridoxal 5'-phosphate (PLP) cofactor
B2: Escherichia coli CysE (Escherichia coli K-12) (protein)
chain: T1 sequence (P0A9D4 1-273)
B3: cysteine synthase complex (CSC; E. coli CysE in complex with E. coli CysK) (Escherichia coli K-12) (protein)
chain: T1 sequence (P0A9D4 1-273)
B4: serine acetyltransferase (CysE) from E. coli (enzyme, UniProt P0A9D4 1-273, looked up)
chain: T1 sequence (P0A9D4 1-273)

Where two headings read alike, the source gives them in different places.

Data set [1] deals with T1, cysteine synthase complex (CSC; E. coli CysE in complex with E. coli CysK). The experiment in a line: L-Ser acetylation steady-state kinetics of CysE in complex with CysK. To be noted: for apparent kcat: per CysE hexamer.
Another data set deals with T2, Escherichia coli CysE. The experiment in a line: L-Ser acetylation steady-state kinetics of isolated CysE. To be noted: for apparent kcat: per CysE hexamer.
In a further data set the target is CysK (Escherichia coli, UniProt P0ABK5). The experiment in a line: Fluorescence titration of CysK. Format: binding. To be noted: in the presence of 10 μM L-Cys.
In another data set the test system is plant CysE. The conditions noted are these: plant CysE in the CSC vs free; cited from earlier work.
The data set “SEC” deals with the molecule itself. The experiment in a line: SEC.
Substrate in data set [2]: N[C@@H](CO)C(=O)O
The experiment in a line: purified protein, by the assay type. To be noted: 20.0 °C.

In data set [3] the target is B1. The experiment in a line: other fluorescence titration.
The target in data set [4] is B1. The experiment in a line: inhibition of enzyme activity.

With `CC(=O)SCCNC(=O)CCNC(=O)[C@H](O)C(C)(C)COP(=O)(O)OP(=O)(O)OC[C@H]1O[C@@H](n2cnc3c(N)ncnc32)[C@H](O)[C@@H]1OP(=O)(O)O` [Acetyl-CoA, acetyl-CoA], the apparent kcat in data set [1] (+CysK fivefold molar excess, acetyl-CoA varied, L-Ser 20 mM) amounted to 416 ± 38 s⁻¹; at Escherichia coli CysE (-CysK, acetyl-CoA varied, L-Ser 20 mM), 306 ± 35 s⁻¹. Also, the Michaelis constant (Km) in data set [1] (read-out: KM,acCoA, +CysK fivefold molar excess, global fit Eqn 2) came out at 300 ± 100 µM; at Escherichia coli CysE (read-out: KM,acCoA, -CysK, global fit Eqn 2), 300 ± 100 µM; on Escherichia coli CysE (read-out: apparent KM, -CysK, acetyl-CoA varied, L-Ser 20 mM, 20 °C), 1400 ± 400 µM. Further, the equilibrium dissociation constant (Kd) in data set [1] (read-out: Kd,acCoa, +CysK fivefold molar excess, global fit Eqn 2) is 100 ± 100 µM; at Escherichia coli CysE (read-out: Kd,acCoa, -CysK, dissociation from unligated enzyme, global fit Eqn 2), 100 ± 100 µM.
In the case of `N[C@@H](CS)C(=O)O` [L-Cys, L-cysteine], the “fold increase in the dissociation constant of the CSC” value on CysK came to 10 fold. Also, the “fold increase of L-Cys Ki of plant CysE in the CSC” value in the data set on plant CysE was “more than 35 fold”. In the data set with plant CysE, the “increase in L-Cys IC50 of plant CysE in the CSC” value is “fourfold”. For the same molecule, the IC50 in data set [1] was 0.7 µM; against Escherichia coli CysE (IC50 for L-Cys, free CysE), 0.18 µM; against Escherichia coli CysE (L-Cys concentration around the IC50, 0.1 mM L-Ser (physiological), Fig. S5B), about 0.07 µM; on Escherichia coli CysE (L-Cys concentration around the IC50, 20 mM L-Ser (saturating), Fig. S5B), about 0.5 µM. In addition, in data set [1] (presence of molar excess CysK), the “increase of L-Cys IC50 in the CSC vs free CysE” value is listed as “fourfold”.
Turning to `N[C@@H](CO)C(=O)O` [L-Ser, L-serine], the Kd in data set [1] turned out to be 600 ± 200 µM; on Escherichia coli CysE, 500 ± 200 µM. The affinity in data set [1] corresponds to a Ki of 16000 ± 5000 µM. The apparent kcat is 228 ± 34 s⁻¹ in data set [1] (+CysK fivefold molar excess, L-Ser varied, acetyl-CoA […]) and 228 ± 60 s⁻¹ on Escherichia coli CysE (-CysK, L-Ser varied, acetyl-CoA […]). Moreover, the “increase in the L-Ser inhibition constant, CSC vs free CysE” value in data set [1] (CysE in complex with CysK) is recorded as “four fold”.
In the case of B1, the “stoichiometry N” value in “SEC” was 2.
On to B2, for which the Km is 1700 ± 700 µM in data set [2] (other: -CysK, L-Ser varied, acetyl-CoA […]) and 1300 ± 200 µM in data set [2] (other: -CysK, global fit, random-order mechanism (Eqn 2)).
Regarding B3, the Km in data set [2] (other: +CysK fivefold molar excess, L-Ser varied, acetyl-CoA […]) was 1100 ± 400 µM; in data set [2] (other: +CysK fivefold molar excess, global fit Eqn 2) it was 1200 ± 200 µM.
In the case of B4, the “stoichiometry N” value in data set [3] is ~1.6 CysE:CysK; in the data set “SEC” it was 6. In data set [4], this molecule gave a Ki app of 0.0087 ± 0.001 µM.
